Source: patent US11820726B2, “Motuporamine derivatives as antimicrobial agents and antibiotic enhancers against resistant gram-negative bacteria” (University of Central Florida Research Foundation, Inc., priority 2017, dated 2023)

Legend:
bacterial membrane = details: cited from earlier work
[1] = tested on: E. aerogenes EA289, P. aeruginosa PAO1, and K. pneumoniae KPC2-ST258; assay: Determination of antibiotic MIC in the presence of compounds (restoring enhancer concentration); assay type: cell-based
Method: Determination of antibiotic MIC in the presence of compounds: Briefly, restoring enhancer concentrations were determined with an inoculum of 5×10^5 colony forming unit (CFU) in MH broth (200 μL) containing twofold serial dilutions of each derivative and antibiotic (chloramphenicol, doxycycline, cefepime, or erythromycin; 2 μg/mL). […] Measurements were repeated in triplicate.

[2] = tested on: S. aureus RN4220, P. aeruginosa PAO1 and E. coli ANSI; details: cited from earlier work; for antibacterial activity: unsubstituted diamines; for activity against S. aureus RN4220, P. aeruginosa PAO1 and E. coli ANSI: higher polyamines
P. aeruginosa PAO1 = assay: MIC of doxycycline against P. aeruginosa PAO1; assay type: cell-based; details: Pseudomonas aeruginosa
Method: Antibiotics: All the antibiotics were purchased from Sigma-Aldrich except for doxycycline which was purchased from TCI Europe (Zwijndrecht, Belgium). All antibiotics were dissolved in water. The susceptibility of bacterial strains to antibiotics and compounds was determined in microplates by the standard broth dilution method, according to the recommendations of the Comité de l'AntibioGramme de la Société Française de Microbiologie (CA-SFM).^[36] Briefly, MICs were determined with an inoculum of 10^5 CFU in of MH broth (200 μL) containing twofold serial dilutions of each drug. […] Measurements were repeated in triplicate.

[3] = tested on: Staphylococcus aureus ATCC25923; assay: ATP release (membrane disruption) in S. aureus; assay type: cell-based; details: ATP release for 1 min, 100 μg/mL
Method: Measurement of ATP efflux: Squalamine were prepared in doubly distilled water at different concentrations. A suspension of growing S. aureus or E. aerogenes (EA289) in MH broth was incubated at 37° C. The suspension (90 μL) was added to squalamine solution (10 μL, synthesized in lab according to reported procedures), and the mixture was vortexed for Is. Luciferin-luciferase reagent (Yelen, France; 50 μL) was immediately added, and luminescence was quantified with an Infinite M200 microplate reader (Tecan) for 5 s. ATP concentration was quantified by addition of a known amount of ATP (1 μM).

E. aerogenes EA289 = assay: Nitrocefin hydrolysis assay (outer membrane permeabilization); assay type: cell-based, Enterobacter aerogenes; details: 5b even at 3.9 μM, compared to spermine-treated or untreated control
Method: Nitrocefin hydrolysis assay: Outer membrane permeabilization was measured by using nitrocefin, a chromogenic substrate of periplasmic β-lactamase. MH broth (10 mL) was inoculated with of an overnight culture (0.1 mL) of EA289 and grown at 37° C. to OD600=0.5. The remaining steps were performed at room temperature. Cells were recovered by centrifugation (3600 G, 20 min) and washed once with potassium phosphate buffer (PPB) (20 mM, pH 7.2) containing MgCl2 (1 mM). After another centrifugation, the pellet was resuspended in PPB (100 μL) and adjusted to OD600=0.5. Then, either Polymyxin B (positive control; Sigma-Aldrich) or 5b (50 μL) was added to the cell suspension (100 gm/L) to final concentrations of 0.98-500 μM “2.5, 15, 62.5, and 125 μM”. Nitrocefin (50 μL, 50 μg/mL; Oxoid) was added, and its hydrolysis was monitored spectrophotometrically by measuring the increase in absorbance at 490 nm. Assays were performed in 96-well plates with an M200 Pro spectrophotometer (Tecan).

For `S=C(NCCCNCCCCCNCCCNC(=S)NCC(c1ccccc1)c1ccccc1)NCC(c1ccccc1)c1ccccc1` [1,13-bis (((2,2-diphenyl)-1-ethyl)thioureido)-4,10-diazatridecane], the cytoplasmic membrane depolarization (bacterial membrane) is listed as “depolarize the cytoplasmic membrane”.

In the case of `Cl.Cl.NCCCCNCc1c2ccccc2cc2ccccc12` [7b], the “synergy with chloramphenicol and erythromycin” value ([1]; antibiotic 2 μg/mL, PAO1, EA289 and KPC2-ST258) is reported as “weak or no activity” and the “restoration of doxycycline activity” value ([1]; doxycycline 2 μg/mL, derivative even at 40 μM) is reported as “no improvement”.

For `NCCCCCN` [cadaverine], the antibacterial activity [2] is given as “no antibacterial activity” and the membrane rupture (bacterial membrane) is given as “did not cause membrane rupture”.

Molecule `C[C@H]1c2cccc(O)c2C(=O)C2=C(O)[C@]3(O)C(=O)C(C(N)=O)=C(O)[C@@H](N(C)C)[C@@H]3[C@@H](O)[C@@H]21` [doxycycline] has an MIC (P. aeruginosa PAO1) of 16 µg/mL.

For `NCCCCN` [putrescine], the antibacterial activity [2] is given as “no antibacterial activity” and the membrane rupture (bacterial membrane) is given as “did not cause membrane rupture”.

In the case of `NCCCCNCCCN` [spermidine], the “activity against S. aureus RN4220, P. aeruginosa PAO1 and E. coli ANSI” value [2] is given as “inactive”.

For `NCCCNCCCCNCCCN` [spermine], the “ATP release (disruption of the bacterial membrane)” value [3] is given as “no significant effect” and the “activity against S. aureus RN4220, P. aeruginosa PAO1 and E. coli ANSI” value [2] is given as “inactive”.

In the case of `CC(C)[C@@H](CC[C@@H](C)[C@H]1CC[C@H]2[C@@H]3[C@H](O)C[C@H]4C[C@@H](NCCCNCCCCN)CC[C@]4(C)[C@H]3CC[C@]12C)OS(=O)(=O)O` [squalamine], the “ATP release (disruption of the bacterial membrane)” value [3] is reported as “dramatic disruption of the bacterial membrane”.

For polymyxin-B, the “rate of nitrocefin hydrolysis” value (E. aerogenes EA289) was “increase in nitrocefin hydrolysis”.
